Drawing on ChEMBL document CHEMBL5143654, “Synthesis and biological evaluation of marine natural product, Cryptoechinuline D derivatives as novel antiangiogenic agents” (Bioorg Med Chem Lett, 2022), this text covers viability, inhibition and IC50 for 13 molecules.

Activity calls are given as the source filed them. No cut-off for these calls is given here.

Test [1] has as its system HUVEC. Kind of test: Cytotoxicity against HUVEC cells assessed as cell viability at 50 uM measured after 24 hrs by MTT assay. The class given is functional. As to conditions: Homo sapiens, read-out: Activity.
Test [2] relates to HUVEC. Kind of test: Anti-angiogenesis activity against HUVEC cells assessed as inhibition of vertical migration at 5 to 10 uM measured after 24 hrs by Transwell assay. As to conditions: Homo sapiens, dose 5-10 µM. The class given is functional, cell-based.
Test [3] concerns HUVEC. Kind of test: Anti-angiogenesis activity against HUVEC cells assessed as decrease in Tie2 phosphorylation at Tyr1102/1100 level at 5 to 10 uM measured after 24 hrs by Western blot analysis. As to conditions: Homo sapiens, dose 5-10 µM. The class given is functional, cell-based.
Test [4] relates to HUVEC. Description: Anti-angiogenesis activity against HUVEC cells assessed as decrease in Ang2 level at 5 to 10 uM measured after 24 hrs by Western blot analysis. In kind it is functional, cell-based. As to conditions: Homo sapiens, dose 5-10 µM. A general note: Immunoblotting shows a protein as a band on a membrane.
The test system of test [5] is HUVEC. Description: Anti-angiogenesis activity against HUVEC cells assessed as inhibition of cell migration at 5 to 10 uM measured after 24 hrs by Matrigel invasion assay. In kind it is functional, cell-based. As to conditions: Homo sapiens, dose 5-10 µM.
In test [6] the test system is HUVEC. Kind of test: Cytotoxicity against HUVEC cells assessed as inhibition of cell viability measured after 24 hrs by MTT assay. The class given is functional, cell-based. As to conditions: Homo sapiens. (In general: Formazan colour is commonly taken as a measure of viable cells.)
Test [7] has as its system HUVEC. Kind of test: Anti-angiogenesis activity against HUVEC cells assessed as inhibition of horizontal migration at 5 to 10 uM measured after 8 hrs by wound healing assay. As to conditions: Homo sapiens, dose 5-10 µM. In kind it is functional, cell-based.
The test system of test [8] is HUVEC. Description: Antiproliferative activity against HUVEC assessed as decrease in number Edu-positive cells at 5 to 10 uM after 24 hrs by fluorescence microscopic analysis. In kind it is functional, cell-based. As to conditions: Homo sapiens, dose 5-10 µM.

As for `C=CC(C)(C)c1[nH]c2ccccc2c1/C=C1\NC(=O)[C@@]2(C[C@@H](C)C=C[C@H]2/C=C/c2c(OC)cc(CC=C(C)C)c(O)c2C=O)NC1=O` (racemic), the viability at 50 µM in test [1] is 31.1%.

Regarding `C=CC(C)(C)c1[nH]c2ccccc2c1/C=C1\NC(=O)[C@@]2(C[C@@H](C)C=C[C@H]2/C=C/c2c(OC)cc(CC=C(C)C)c(O)c2CN2CCCC2)NC1=O` (racemic), the viability at 50 µM in test [1] was found to be 81.6%.

With `C=CC(C)(C)c1[nH]c2ccccc2c1/C=C1\NC(=O)[C@@]2(C[C@@H](C)C=C[C@H]2/C=C/c2c(OC(C)=O)cc(CC=C(C)C)c(O)c2/C=N\O)NC1=O` (racemic), the viability at 50 µM in test [1] was 93%.

For the molecule `C=CC(C)(C)c1[nH]c2ccccc2c1/C=C1\NC(=O)[C@@]2(C[C@@H](C)C=C[C@H]2/C=C/c2c(OC(C)=O)cc(CC=C(C)C)c(O)c2C=O)NC1=O` (racemic), the viability at 50 µM in test [1] was 33.7%.

For `C=CC(C)(C)c1[nH]c2ccccc2c1/C=C1\NC(=O)[C@@]2(C[C@@H](C)C=C[C@H]2/C=C/c2c(OC(C)=O)cc(CC=C(C)C)c(OC(C)=O)c2/C=N\O)NC1=O` (racemic), in test [1], the viability at 50 µM is 94.4%.

Regarding `C=CC(C)(C)c1[nH]c2ccccc2c1/C=C1\NC(=O)[C@@]2(C[C@@H](C)C=C[C@H]2/C=C/c2c(OC)cc(CC=C(C)C)c(OC)c2C=O)NC1=O` (racemic), the viability at 50 µM in test [1] was found to be 87.5%.

In the case of `C=CC(C)(C)c1[nH]c2ccccc2c1/C=C1\NC(=O)[C@@]2(C[C@@H](C)C=C[C@H]2/C=C/c2c(OC(C)=O)cc(CC=C(C)C)c(O)c2C#N)NC1=O` (racemic), the viability at 50 µM in test [1] is 71.8%.

Turning to `C=CC(C)(C)c1[nH]c2ccccc2c1/C=C1\NC(=O)[C@@]2(C[C@@H](C)C=C[C@H]2/C=C/c2c(OC(C)=O)cc(CC=C(C)C)c(O)c2CO)NC1=O` (racemic), the viability at 50 µM in test [1] came out at 40.4%.

For orientation: IC50 means the concentration at which inhibition is half-maximal. Take `C=CC(C)(C)c1[nH]c2ccccc2c1/C=C1\NC(=O)[C@@]2(C[C@@H](C)C=C[C@H]2/C=C/c2c(OC(C)=O)cc(CC=C(C)C)c(OC(C)=O)c2C=O)NC1=O` (racemic): the inhibition entry in test [2], in test [3], in test [4], in test [5], in test [7] and in test [8] was “Active” each time. In test [6], the IC50 came out at 12.6 µM. For the same molecule, the inhibition entry in test [6] (DDE = dose-dependent effect) is “Dde”. Further, the viability at 50 µM in test [1] is 5.33%.

As for `C=CC(C)(C)c1[nH]c2ccccc2c1/C=C1\NC(=O)[C@@]2(C[C@@H](C)C=C[C@H]2/C=C/c2c(O)cc(CC=C(C)C)c(O)c2C=O)NC1=O` (racemic), in test [1], the viability at 50 µM stood at 82.1%.

For the molecule `C=CC(C)(C)c1[nH]c2ccccc2c1/C=C1\NC(=O)[C@@]2(C[C@@H](C)C=C[C@H]2/C=C/c2c(OC(C)=O)cc(CC=C(C)C)c(O)c2CN(CC)CC)NC1=O` (racemic), in test [1], the viability at 50 µM worked out at 94.3%.

As for `C=CC(C)(C)c1[nH]c2ccccc2c1/C=C1\NC(=O)[C@@]2(C[C@@H](C)C=C[C@H]2/C=C/c2c(OC(C)=O)cc(CC=C(C)C)c(OC(C)=O)c2COC(C)=O)NC1=O` (racemic), in test [1], the viability at 50 µM is 83.2%.

With `C=CC(C)(C)c1[nH]c2ccccc2c1/C=C1\NC(=O)[C@@]2(C[C@@H](C)C=C[C@H]2/C=C/c2c(O)cc(CC=C(C)C)c(OC)c2C=O)NC1=O` (racemic), in test [1], the viability at 50 µM was found to be 78.7%.
